The target in test [1] is T1, STK16 (Homo sapiens, UniProt O75716).
T1 construct: purchased DiscoverX (KINOMEscan)
Briefly: KINOMEscan competitive binding. Conditions: n=1, read-out: Percent inhibition, STK16.

Test [2] addresses T2, PAK3 (Homo sapiens, UniProt O75914).
T2 construct: purchased DiscoverX (KINOMEscan)
Briefly: KINOMEscan competitive binding. Conditions: n=1, read-out: Percent inhibition, PAK3.

Test [3] deals with T3, PRKX (Homo sapiens, UniProt P51817).
T3 construct: purchased DiscoverX (KINOMEscan)
T3 sequence (P51817 1-358): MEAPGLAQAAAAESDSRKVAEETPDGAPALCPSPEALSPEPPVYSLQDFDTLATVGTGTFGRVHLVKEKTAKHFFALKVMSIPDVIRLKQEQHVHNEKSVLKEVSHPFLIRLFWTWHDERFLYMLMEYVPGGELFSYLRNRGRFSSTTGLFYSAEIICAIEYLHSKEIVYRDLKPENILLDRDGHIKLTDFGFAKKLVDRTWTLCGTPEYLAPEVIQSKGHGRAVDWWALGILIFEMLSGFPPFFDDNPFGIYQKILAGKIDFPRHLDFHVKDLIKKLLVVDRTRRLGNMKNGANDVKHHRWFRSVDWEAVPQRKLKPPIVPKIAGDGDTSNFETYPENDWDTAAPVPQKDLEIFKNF
Briefly: KINOMEscan competitive binding. Conditions: n=1, read-out: Percent inhibition, PRKX.

Test [4] addresses T4, RPS6KA6(Kin.Dom.1) (Homo sapiens, UniProt Q9UK32).
T4 construct: RPS6KA6(Kin.Dom.1); purchased DiscoverX (KINOMEscan)
Briefly: KINOMEscan competitive binding. Conditions: n=1, read-out: Percent inhibition, RPS6KA6(Kin.Dom.1).

The target in test [5] is ROCK1. Further details: method as in earlier work. Conditions: previous study; read-out: Ki against ROCK1; cited from earlier work.
For test [6], the system named is JAK kinase domains. Briefly: KINOMEscan competitive binding. Further details: species or system human. Conditions: kinome profiling, 10 μM. The text has this: The kinases were expressed as fusions to T7 bacteriophage. This is a sensitive, competitive binding assay where test compounds were used to displace immobilized ATP-site binding probe ligands from kinases of interest. The amount of kinase that remained bound to the immobilized probe ligands on the solid support was quantified. Percentage inhibition data were was plotted on kinome trees using the web-based tool KinMap (http://www.kinhub.org/kinmap) ([60]).

For test [7], the target named is JAK3. Also on record: method as in earlier work. Conditions: previous study; read-out: Ki against JAK3; cited from earlier work.
Test [8] has as its system HepG2 cells. Briefly: Host cell cytotoxicity assay (CellTiter-Glo). Conditions: HepG2 CC50/C. parvum EC50. The procedure:
HepG2 cells were grown in Eagle’s Minimum Essential Medium (MEM) containing 10% FBS, 1% nonessential amino acids (NEAA) and 1% penicillin/streptomycin to >50% confluence prior to harvesting. Cells were suspended in media and 3000 cells per well were added onto 384-well clear bottom plates. Prior to addition of the cell suspension, the screening compounds (250 nl) were predispensed into plates using a liquid handler. Plates were incubated for 48 h at 37°C, 5% CO2. After 48 h of incubation, plates were equilibrated at room temperature for 30 min before luminescence signal was measured using CellTiter-Glo Reagent. Plates were kept at room temperature for 10 min to stabilize the signal and then read using a ViewLux luminescence reader. The HepG2 CC50 (from the host cell cytotoxicity assays) and C. parvum mean EC50 (from parasite growth inhibition assays) values were used to calculate selectivity index.

Test [9] has as its system panel of 203 kinases. Briefly: KINOMEscan competitive binding, whole panel. Also on record: species or system human. Conditions: 10 μM; for number of other kinases strongly bound (≥99%): not including the CDKs and Aurora kinase A. Summed up:
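Percentage inhibition reflects loss of kinase binding to solid-phase ATP-site probe ligands in the presence of compound. Kinases carry a T7 bacteriophage fusion.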

T4 sequence (Q9UK32 1-400 limits assumed): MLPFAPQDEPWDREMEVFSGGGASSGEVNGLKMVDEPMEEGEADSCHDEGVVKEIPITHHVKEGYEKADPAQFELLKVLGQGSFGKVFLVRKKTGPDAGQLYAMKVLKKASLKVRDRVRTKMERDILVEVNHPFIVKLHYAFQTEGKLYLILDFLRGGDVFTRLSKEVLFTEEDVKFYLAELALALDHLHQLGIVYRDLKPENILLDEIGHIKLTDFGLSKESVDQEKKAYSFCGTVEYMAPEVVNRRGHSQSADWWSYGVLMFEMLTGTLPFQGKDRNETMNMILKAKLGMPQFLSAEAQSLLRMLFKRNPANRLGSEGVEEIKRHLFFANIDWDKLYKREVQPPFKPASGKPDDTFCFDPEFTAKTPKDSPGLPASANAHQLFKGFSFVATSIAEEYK
T2 sequence (O75914 whole entry): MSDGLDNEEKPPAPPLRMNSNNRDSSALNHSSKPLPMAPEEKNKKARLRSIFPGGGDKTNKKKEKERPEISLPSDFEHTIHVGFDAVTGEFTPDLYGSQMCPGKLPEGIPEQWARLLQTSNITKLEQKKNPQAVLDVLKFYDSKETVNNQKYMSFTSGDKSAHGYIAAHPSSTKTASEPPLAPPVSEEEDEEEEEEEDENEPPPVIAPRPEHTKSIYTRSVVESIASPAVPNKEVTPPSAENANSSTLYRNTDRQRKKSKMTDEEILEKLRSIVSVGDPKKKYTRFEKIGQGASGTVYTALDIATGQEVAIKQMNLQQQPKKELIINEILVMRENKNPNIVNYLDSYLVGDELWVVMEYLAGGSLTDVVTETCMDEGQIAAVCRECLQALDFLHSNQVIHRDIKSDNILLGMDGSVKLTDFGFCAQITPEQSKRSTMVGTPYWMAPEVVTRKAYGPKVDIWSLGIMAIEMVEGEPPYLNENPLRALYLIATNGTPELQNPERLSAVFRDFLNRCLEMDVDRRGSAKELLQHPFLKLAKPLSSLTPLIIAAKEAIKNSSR
T1 sequence (O75716 whole entry): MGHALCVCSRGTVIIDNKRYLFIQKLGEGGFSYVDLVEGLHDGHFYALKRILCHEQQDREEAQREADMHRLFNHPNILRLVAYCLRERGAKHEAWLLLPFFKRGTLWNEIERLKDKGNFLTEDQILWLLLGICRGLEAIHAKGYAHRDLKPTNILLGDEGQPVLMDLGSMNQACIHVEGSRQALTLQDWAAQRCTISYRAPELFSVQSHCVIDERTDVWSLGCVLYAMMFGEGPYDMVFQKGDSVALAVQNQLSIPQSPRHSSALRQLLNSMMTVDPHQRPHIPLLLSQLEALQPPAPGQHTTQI

In the case of `Cc1ccc(O)cc1Nc1ccnc(Nc2cccc(C(N)=O)c2)n1` [Compound 3], the inhibition at 10 µM came to 99.9% in [1], 0% in test [2], 0% in test [3] and 0% in test [4].
Consider `Clc1ccc(Nc2ncc(-c3ccccc3)s2)cc1` [Compound 10], for which the inhibition at 10 µM in test [1], in test [2], in test [3] and in test [4] was 0% in each case.
Take `c1ccc(COc2cccc(-c3ccnc4[nH]ccc34)c2)cc1` [Compound 9]: the inhibition at 10 µM in test [1], in test [2], in test [3] and in test [4] was 0% throughout. Besides, the Ki in test [5] and in test [7] was < 500 nM each time. Besides, the “binding to JAK kinase domains, in words” value in [6] is “little binding”.
On to `Fc1cccc(COc2ccc(Nc3ncnc4c3CN(CCN3CCOCC3)CC4)cc2Cl)c1` [Compound 6], for which the inhibition at 10 µM in test [1], in test [2], in [3] and in [4] was 0% in each case. Besides, in test [8], the Selectivity index is >100.
With `C[C@@H](Oc1cc(-c2cnc3ccccn23)sc1C(N)=O)c1ccccc1Cl` [Compound 8], the inhibition at 10 µM in test [1], in test [2], in test [3] and in [4] was 0% throughout.
As to `CN1CCN(c2ccc(Nc3nccc(-c4cnn5ncccc45)n3)cc2C#N)CC1` [Compound 1], the inhibition at 10 µM in test [1] turned out to be 100%; in [2], 85.3%; in test [3], 0%; in [4], 0%. For the same molecule, the Selectivity index in [8] was >100. Moreover, the “number of other kinases strongly bound (≥99%)” value in test [9] stood at 50.
As for `Cc1ccc(O)cc1N(C)c1ccnc(Nc2cccc(S(N)(=O)=O)c2)n1` [Compound 4], the inhibition at 10 µM in test [1] was 99.8%; in [2] it was 0%; in [3], 0%; in test [4] it was 0%.
Regarding `COc1ccc(Nc2nccc(-c3cnn4ncccc34)n2)cc1` [Compound 2], the inhibition at 10 µM was 99.7% in test [1], 0% in [2], 0% in test [3] and 0% in [4]. Further, the Selectivity index in test [8] is given as >100. In addition, the “number of other kinases strongly bound (≥99%)” value in [9] is on record as 28.
Take `Nc1ncc2c(-c3ccncc3)c[nH]c2n1` [Compound 11]: the inhibition at 10 µM in test [1], in [2], in test [3] and in test [4] was 0% throughout. The Selectivity index in [8] is listed as >100.
On to `COc1cc(Nc2nccc(-c3sc(N)nc3-c3cccc(NC(=O)c4c(F)cccc4F)c3)n2)cc(OC)c1OC` [Compound 7], for which the inhibition at 10 µM turned out to be 98.7% in test [1], 94.9% in [2], 0% in test [3] and 83.2% in [4]. The same molecule yielded a Selectivity index in test [8] of 14. In [9], the “number of kinases with >99% inhibition” value is 48.

Values taken from paper PMC9927415, “Tyrosine Kinase Inhibitors Display Potent Activity against Cryptosporidium parvum” (Microbiology Spectrum, 2022).
